Data on 18 molecules can be found in patent US20260152494A1, “CDK2 INHIBITORS AND METHODS OF USING THE SAME” (Cedilla Therapeutics, Inc., priority 2022, published 2026).

The test system of experiment [1] is Kuramochi cells labeled with mApple-H2B. Description: IncuCyte cell proliferation assay. The experiment is classed as cell-based. The settings on record: Kuramochi RB-WT cells, 72 hours, cell count normalized to DMSO. As for the experimental part: Example A3: IncuCyte® Cell Proliferation Assay
IncuCyte® assay was used to measure the effect of disclosed compounds on cell proliferation. Fluorescent microscopy images of cells were taken immediately after compound treatment and 72 hours later. Image analysis software was used to obtain cell counts as a function of compound concentration. Kuramochi cells labeled with mApple-H2B were seeded on 384-well assay-ready plates. Plates were placed in an IncuCyte® (Sartorius) and scanned at 0 and 72 hours. IncuCyte® software was used to count the number of fluorescent nuclei in each well. The fold change in cell count from 0 to 72 hours in wells treated with increasing compounds concentrations (10 pts, 1/2 log dilution, 20 μM top concentration) was normalized to DMSO control wells. The normalized cell counts were fit with dose response curves and a GI50 was calculated.

Experiment [2] addresses T1, CDK2/Cyclin E1 (Homo sapiens, UniProt P24941).
T1 construct: purchased Eurofins 14-475
The experiment is described as follows: ADPGLO (CDK2/E1-37C) ADP-Glo Luminescent Kinase Assay. Format: biochemical. The settings on record: 0.18 nM CDK2/Cyclin E1, 100 μM ATP, 1.5 μM Histone H1, 37° C., 60 min preincubation. The method, then: Example A2: ADPGLO (CDK2/E1-37C)
Inhibition of CDK2/Cyclin E1 activity by the presence of small molecules was evaluated using ADP-Glo Luminescent Kinase Assay (Promega). Activated CDK2/Cyclin E1 was incubated with its substrate Histone H1 (SignalChem H10-54N) in the kinase reaction buffer (100 μM ATP, 50 mM HEPES pH 7.5, 10 mM MgCl2, 1 mM EDTA, 2 mM DTT, 0.01% Brij35, 0.5 mg/mL BSA). Luminescence was recorded with an Envision plate reader (PerkinElmer).
Dose titrations of inhibitors in 100% DMSO were combined with 0.36 nM CDK2/Cyclin E1 in reaction buffer. The mixtures were incubated for 60 minutes at 37° C. before the addition of ATP and Histone H1 substrate to initiate the kinase reaction. The final conditions were 0.18 nM CDK2/Cyclin E1, 100 μM ATP, and 1.5 μM Histone H1. The reactions were incubated at 37° C. for 90 minutes before being stopped with the addition of ADP-Glo reagent. This mixture was incubated at room temperature for 60 minutes before Kinase Detection Solution is added to generate luminescence. The stopped reactions were analyzed on an Envision plate reader. The conversion ratios were normalized to yield % activity, plotted against compound concentration, and fit to a four-parameter equation to determine the IC50 for each compound.
On the technique in general: ADP-Glo turns the ADP formed in a reaction into a luminescent signal.

Experiment [3] has as its target T1, CDK2/Cyclin E1. Description: CDK2/Cyclin E1 Caliper LabChip EZ Reader mobility shift assay. The experiment is classed as biochemical. The conditions noted are these: 2.5 nM CDK2/Cyclin E1, 100 μM ATP, 1.5 μM fluorescent peptide, 30 min preincubation; read-out: Caliper Assay (CDK2/CCNE1): IC50. The method, then: Example A1: CDK2/Cyclin E1 Caliper Assay
Inhibition of CDK2/Cyclin E1 activity in the presence of compounds of the present disclosure was evaluated using a Caliper LabChip® EZ Reader mobility shift assay. In the assay, CDK2/Cyclin E1 (Eurofins, 14-475) catalyzed the phosphorylation of a fluorescently tagged peptide 5-FAM-QSPKKG-CONH2 (PerkinElmer, FL Peptide 18) which induced a difference in capillary electrophoresis mobility. The peptide substrate and product were measured, and the conversion ratio was used to determine the inhibition (as % activity and IC50 values) of CDK2/Cyclin E1. Reactions contained 50 mM HEPES pH 7.5, 10 mM MgCl2, 1 mM EDTA, 2 mM DTT, 0.01% Brij35, 0.5 mg/mL BSA, 0.1% DMSO, 2.5 nM CDK2/Cyclin E1, 100 μM ATP, and 1.5 μM fluorescent peptide substrate.
Dose titrations of inhibitors in 100% DMSO were combined with 3.25 nM CDK2/Cyclin E1 and 130 μM of ATP in reaction buffer. The mixtures were incubated for 30 minutes before the addition of fluorescent peptide substrate to initiate the kinase reaction. The final conditions were 2.5 nM CDK2/Cyclin E1, 100 μM ATP, and 1.5 μM fluorescent peptide. The reactions were stopped after 100 minutes with the addition of EDTA (400 mM final EDTA concentration). The stopped reactions were analyzed on a Caliper LabChip® EZ Reader II. The conversion ratios were normalized to yield % activity, plotted against compound concentration, and fit to a four-parameter equation to determine the IC50 for each compound.

Take `CC1(C)C[C@@H]1C(=O)N1CC2(C1)C(=O)N(Cc1cncs1)CC2c1nnc(C(F)(F)c2ccc(Cl)c(Cl)c2)o1` (stereo partly drawn) [Compound I-6, 8-(5-((3,4-dichlorophenyl)difluoromethyl)-1,3,4-oxadiazol-2-yl)-2-((S)-2,2-dimethylcyclopropane-1-carbonyl)-6-(thiazol-5-ylmethyl)-2,6-diazaspiro[3.4]octan-5-one]: the IC50 is more than 20 µM in experiment [1], more than 100 µM in experiment [2] and more than 10 µM in experiment [3].
`C[C@@H](OCC1CCCCC1)[C@H](NC(=O)[C@@H]1CN(C(=O)c2cncs2)CC12CCOCC2)C(=O)N1CCC(c2ccc(C(=O)O)cc2)CC1` (single isomer, unassigned) [I-4 2nd, 4-(1-(O-(cyclohexylmethyl)-N-(2-(thiazole-5-carbonyl)-8-oxa-2-azaspiro[4.5]decane-4-carbonyl)-L-threonyl)piperidin-4-yl)benzoic acid]: the IC50 was more than 20 µM in experiment [1] and more than 10 µM in experiment [2].
The matching figures for `C[C@@H](OCC1CCCCC1)[C@H](NC(=O)[C@H]1CN(C(=O)c2cncs2)CC12CCOCC2)C(=O)N1CCC(c2ccc(C(=O)O)cc2)CC1` (single isomer, unassigned) [I-4 1st, 4-(1-(O-(cyclohexylmethyl)-N-(2-(thiazole-5-carbonyl)-8-oxa-2-azaspiro[4.5]decane-4-carbonyl)-L-threonyl)piperidin-4-yl)benzoic acid]: more than 20 µM and more than 10 µM.
The matching figures for `C[C@@H](OCC1CCCCC1)[C@H](NC(=O)[C@@H]1CN(Cc2cnn(Cc3ccccc3)c2)C(=O)C12CN(C(=O)[C@H]1CC1(C)C)C2)C(=O)N1CCC(c2nccs2)CC1` [Compound I-5, (S)-6-((1-benzyl-1H-pyrazol-4-yl)methyl)-N-((2S,3R)-3-(cyclohexylmethoxy)-1-oxo-1-(4-(thiazol-2-yl)piperidin-1-yl)butan-2-yl)-2-((S)-2,2-dimethylcyclopropane-1-carbonyl)-5-oxo-2,6-diazaspiro[3.4]octane-8-carboxamide]: not above 0.5 µM and not above 0.5 µM.
`CCOC(=O)[C@@H]1CN(C(C)=O)CC12CN(C(C)=O)C2` [Compound I-28, ethyl (S)-2,6-diacetyl-2,6-diazaspiro[3.4]octane-8-carboxylate]: the IC50 in experiment [1] is more than 20 µM; in experiment [3], more than 10 µM.
Turning to `C[C@@H](OCC1CCCCC1)[C@H](NC(=O)C1CN(C(=O)c2cncs2)CC12CCN(C(=O)[C@H]1CC1(C)C)CC2)C(=O)N1CCC(c2ccc(C(=O)O)cc2)CC1` (stereo partly drawn) [Compound I-41, 4-(1-(O-(cyclohexylmethyl)-N-(8-((S)-2,2-dimethylcyclopropane-1-carbonyl)-2-(thiazole-5-carbonyl)-2,8-diazaspiro[4.5]decane-4-carbonyl)-L-threonyl)piperidin-4-yl)benzoic acid], the values for the IC50 in experiment [1] and in experiment [2] were more than 20 µM and not above 0.5 µM, respectively.
Regarding `O=C(c1cncs1)N1CC(c2nnc(C(F)(F)c3ccc(Cl)c(Cl)c3)o2)C2(CCOCC2)C1` (stereo not shown) [Compound I-12, (4-(5-((3,4-dichlorophenyl)difluoromethyl)-1,3,4-oxadiazol-2-yl)-8-oxa-2-azaspiro[4.5]decan-2-yl)(thiazol-5-yl)methanone], the figures for the IC50 in experiment [1] and in experiment [3] were more than 20 µM and more than 10 µM, respectively.
The matching figures for `CC(=O)N[C@@H](C(=O)NC1CN(C(=O)c2cncs2)CC12CN(C(=O)[C@H]1CC1(C)C)C2)[C@H](C)OCC1CCCCC1` (stereo partly drawn) [Compound I-24, (2R,3S)-2-acetamido-3-(cyclohexylmethoxy)-N-(2-((S)-2,2-dimethylcyclopropane-1-carbonyl)-6-(thiazole-5-carbonyl)-2,6-diazaspiro[3.4]octan-8-yl)butanamide]: more than 20 µM and 1 to 10 µM.
The corresponding values for `CC(=O)N1C[C@@H](C(N)=O)C2(C1)CN(C(C)=O)C2` [Compound I-22, (S)-2,6-diacetyl-2,6-diazaspiro[3.4]octane-8-carboxamide] are more than 20 µM and more than 10 µM.
The corresponding values for `COC[C@H]1CCCN(C(=O)[C@@H](NC(=O)[C@@H]2CN(C(=O)c3cncs3)CC23CN([S+]([O-])C(C)(C)C)C3)[C@@H](C)OCC2CCCCC2)C1` (stereo partly drawn) [Compound I-17, (8S)-2-(tert-butylsulfinyl)-N-((2S,3R)-3-(cyclohexylmethoxy)-1-((S)-3-(methoxymethyl)piperidin-1-yl)-1-oxobutan-2-yl)-6-(thiazole-5-carbonyl)-2,6-diazaspiro[3.4]octane-8-carboxamide] are more than 20 µM and 1 to 10 µM.
Consider `C[C@@H](OCC1CCCCC1)[C@H](NC(=O)[C@H]1CCOC12CN(C(=O)[C@H]1CC1(C)C)C2)C(=O)N1CCC[C@H](N)C1` (single isomer, unassigned) [I-31 2nd], for which the IC50 was more than 20 µM in experiment [1] and more than 10 µM in experiment [3].
The matching figures for `CN(C(=O)C1CC2(C1)CN(C(=O)c1cncs1)CC2c1nnc(C(F)(F)c2ccc(Cl)c(Cl)c2)o1)C1CC1` (racemic) [Compound I-16, rac-(R)—N-cyclopropyl-8-(5-((3,4-dichlorophenyl)difluoromethyl)-1,3,4-oxadiazol-2-yl)-N-methyl-6-(thiazole-5-carbonyl)-6-azaspiro[3.4]octane-2-carboxamide]: more than 20 µM and more than 10 µM.
In the case of `C[C@@H](OCC1CCCCC1)[C@H](NC(=O)[C@@H]1CCOC12CN(C(=O)[C@H]1CC1(C)C)C2)C(=O)N1CCC[C@H](N)C1` (single isomer, unassigned) [I-31 1st], the IC50 in experiment [1] was more than 20 µM; in experiment [3], more than 10 µM.
The matching figures for `O=C(c1cc(F)n[nH]1)N1CC(c2nnc(C(F)(F)c3ccc(Cl)c(Cl)c3)o2)C2(CCOCC2)C1` (stereo not shown) [Compound I-1]: more than 20 µM and more than 10 µM.
The corresponding values for `C[C@@H](OCC1CCCCC1)[C@H](NC(=O)[C@@H]1CNCC12CN(C(=O)[C@H]1CC1(C)C)C2)C(=O)N1CCOCC1` [Compound I-32, (S)—N-((2S,3R)-3-(cyclohexylmethoxy)-1-morpholino-1-oxobutan-2-yl)-2-((S)-2,2-dimethylcyclopropane-1-carbonyl)-2,6-diazaspiro[3.4]octane-8-carboxamide] are more than 20 µM and more than 10 µM.
With `CNC(=O)[C@@H](NC(=O)[C@@H]1CN(C(C)=O)CC12CN(C(=O)[C@H]1CC1(C)C)C2)[C@@H](C)OCC1CCCCC1` [Compound I-39], the IC50 in experiment [1] was more than 20 µM; in experiment [3] it was more than 10 µM.
The corresponding values for `O=C(c1cncs1)N1CC(c2nnc(C(F)(F)c3ccc(Cl)c(Cl)c3)o2)C2(CCS(=O)(=O)CC2)C1` (stereo not shown) [Compound I-8, (4-(5-((3,4-dichlorophenyl)difluoromethyl)-1,3,4-oxadiazol-2-yl)-8,8-dioxido-8-thia-2-azaspiro[4.5]decan-2-yl)(thiazol-5-yl)methanone] are more than 20 µM and more than 10 µM.
The matching figures for `CC(=O)N[C@@H](C(=O)NC1CN(C(=O)c2cnn(Cc3ccccc3)c2)CC12CN(C(=O)[C@H]1CC1(C)C)C2)[C@H](C)OCC1CCCCC1` (stereo partly drawn) [Compound I-25, (2R,3S)-2-acetamido-N-(6-(1-benzyl-1H-pyrazole-4-carbonyl)-2-((S)-2,2-dimethylcyclopropane-1-carbonyl)-2,6-diazaspiro[3.4]octan-8-yl)-3-(cyclohexylmethoxy)butanamide]: more than 20 µM and 0.1 to 1 µM.
